Results from PMC4516925, “Three Peptide Modulators of the Human Voltage-Gated Sodium Channel 1.7, an Important Analgesic Target, from the Venom of an Australian Tarantula” (Toxins, 2015).
“Also recorded” adds a separate entry of the source. Where a SMILES comes first, the peptide text is derived from it. Bridges are numbered along the chain shown (N, C = ends).

Legend:
[1] = target: T1, hNaV1.7 (Homo sapiens, UniProt Q15858); settings: cited from earlier work
T1 construct: expressed in transfected cells; host or cells: Xenopus oocytes (cRNA injection)

[2] = target: T2, rNaV1.2 (Rattus norvegicus, UniProt P04775); assay: Inhibition of rNaV1.2 currents, two-electrode voltage clamp in Xenopus oocytes; assay type: cell-based; settings: TEVC; for inhibition at 1 µM: 1 μM peptide, 50-ms step to 0 mV from −80 mV every 10 s
T2 construct: expressed in transfected cells; host or cells: Xenopus oocytes (cRNA injection)
Method: (§1) Plasmids containing cloned rNaV1.2, hNaV1.5 and hNaV1.7 were linearised, then capped cRNAs were synthesised using a T7 mMESSAGE-mMACHINE transcription kit (Ambion, Austin, TX, USA). Stage V-VI oocytes were obtained from anesthetised Xenopus frogs and prepared as previously described. Oocytes were injected with 20–40 ng of cRNA (Nanoject 2000; WPI, Sarasota, FL, USA) and incubated for 2–6 days at 17 °C in ND96 solution (96 mM NaCl, 2 mM KCl, 1 mM CaCl2, 2 mM MgCl2, 5 mM HEPES, pH 7.4), supplemented with 2.5 mM sodium pyruvate, 50 μg/mL gentamicin and 2.5% horse serum prior to electrophysiological recordings. All work with animals was carried out in strict accordance with the recommendations in the Australian code of practice for the care and use of animals for scientific purposes. The protocol was approved by the Anatomical Biosciences group of the Animal Ethics Committee at The University of Queensland (Approval Number QBI/059/13/ARC/NHMRC).
(§2) Two-electrode voltage clamp (TEVC) recordings were performed at room temperature (20 °C–22 °C) under voltage-clamp (Axoclamp 900A, Molecular Devices, Sunnyvale, CA, USA) using two standard glass microelectrodes of 0.5–1 MΩ resistance when filled with 3 M KCl solution. Stimulation, data acquisition, and analysis were performed using pCLAMP software (Version 10, Molecular Devices, Sunnyvale, CA, USA). Peptide stock solutions were made up to 30 μM, and serial dilutions were prepared in ND96 solution (pH 7.4) containing 0.1% bovine serum albumin (BSA). Venom peptides were applied directly to the recording chamber to prevent adsorption to plastics.
NaV channel recordings were performed on oocytes clamped at −80 mV. Data were sampled at 20 kHz and filtered at 2 kHz. Inward sodium currents were elicited by a 50-ms depolarising step to 0 mV every 10 s. Once the peak current had stabilised (typically ~3 min), serial dilutions of peptides were applied to oocytes to obtain concentration-effect curves. Data were analysed using Clampfit 10.2 and Prism 6.0 (GrahPad Software, La Jolla, CA, USA, 2013). The Hill equation was fit to the data to obtain the half-maximal inhibitory concentration (IC50) values and Hill coefficient (nH). Data are presented as mean ± S.E.M. (n = number of oocytes). I-V relationships in the absence and presence of 300 nM and 1 μM peptide were obtained on oocytes clamped at −80 mV; families of currents were evoked by applying 50-ms depolarising steps from −60 mV to +70 mV with 10-mV increments every 10 s. […] Data were normalised to the maximal peak current and analysed using Clampfit 10.2 and Prism 6.0.

[3] = target: T1, hNaV1.7; assay: Inhibition of hNaV1.7 currents, two-electrode voltage clamp in Xenopus oocytes; assay type: cell-based; settings: TEVC; for IC50 / Hill coefficient, inhibition of hNaV1.7: Xenopus oocytes, n = 5–7; for IC50: 50-ms step to 0 mV from −80 mV every 10 s, ND96 pH 7.4 with 0.1% BSA, 20 °C–22 °C, Hill equation, mean ± S.E.M.; for Selectivity, hNaV1.7 versus rNaV1.2 and hNaV1.5 (in words): comparison with rNaV1.2 and hNaV1.5, Xenopus oocytes; for Hill coefficient, inhibition of hNaV1.7: from concentration-effect curve
Method: as §1, §2
NaV channel recordings were performed on oocytes clamped at −80 mV. Data were sampled at 20 kHz and filtered at 2 kHz. Inward sodium currents were elicited by a 50-ms depolarising step to 0 mV every 10 s. Once the peak current had stabilised (typically ~3 min), serial dilutions of peptides were applied to oocytes to obtain concentration-effect curves. Data were analysed using Clampfit 10.2 and Prism 6.0 (GrahPad Software, La Jolla, CA, USA, 2013). The Hill equation was fit to the data to obtain the half-maximal inhibitory concentration (IC50) values and Hill coefficient (nH). Data are presented as mean ± S.E.M. (n = number of oocytes). I-V relationships in the absence and presence of 300 nM and 1 μM peptide were obtained on oocytes clamped at −80 mV; families of currents were evoked by applying 50-ms depolarising steps from −60 mV to +70 mV with 10-mV increments every 10 s. After acquiring the control I–V curve, the first concentration of peptide was added and the inhibitory effect was allowed to plateau (a test pulse from −80 to 0 mV every 10 s) before obtaining an I–V curve in the presence of peptide. This was repeated for the second concentration of peptide. Data were normalised to the maximal peak current and analysed using Clampfit 10.2 and Prism 6.0.

[4] = target: T3, hNaV1.5 (Homo sapiens, UniProt Q14524); assay: Inhibition of hNaV1.5 currents, two-electrode voltage clamp in Xenopus oocytes; assay type: cell-based; settings: TEVC
T3 construct: expressed in transfected cells; host or cells: Xenopus oocytes (cRNA injection)
Method: as §1, §2
NaV channel recordings were performed on oocytes clamped at −80 mV. Data were sampled at 20 kHz and filtered at 2 kHz. Inward sodium currents were elicited by a 50-ms depolarising step to 0 mV every 10 s. […] Data were analysed using Clampfit 10.2 and Prism 6.0 (GrahPad Software, La Jolla, CA, USA, 2013). […] Data were normalised to the maximal peak current and analysed using Clampfit 10.2 and Prism 6.0.

[5] = target: T1, hNaV1.7; assay: Current-voltage (I-V) relationship / V0.5 of activation of hNaV1.7; assay type: cell-based; settings: 300 nM and 1 μM; n = 6
Method: as §1, with “QBI/059/13/ARC/NHMRC). […]” for “QBI/059/13/ARC/NHMRC).”
NaV channel recordings were performed on oocytes clamped at −80 mV. […] Data were analysed using Clampfit 10.2 and Prism 6.0 (GrahPad Software, La Jolla, CA, USA, 2013). […] Data were normalised to the maximal peak current and analysed using Clampfit 10.2 and Prism 6.0.

[6] = system: human NaV1.5; settings: cited from earlier work
Text: (§3) Approximately 12% of spider toxins are C-terminally amidated. In addition to a possible role in peptide stability, C-terminal amidation can modulate biological activity. The 35-residue spider-venom peptide huwentoxin-IV (HwTx-IV) is a member of NaSpTx Family 1 isolated from venom of the tarantula Haplopelma schmidti (formerly known as Ornithoctonus huwena). Remarkably, native HwTx-IV with C-terminal amidation inhibits hNaV1.7 with is ~50-fold higher potency than a recombinant version with a C-terminal carboxylate group. Although not in the same peptide family as HwTx-IV (NaSpTx F ...

[7] = system: human NaV1.8; settings: cited from earlier work
Text: as §3

[8] = system: NaV channels; settings: cited from earlier work
Text: as §3, with “[…] Thus, we investigated” for “Although not in”, “effects of Phlogius peptides on the current-voltage (I-V) relationship for hNaV1.7 using step-depolarisations ranging from −60 to +70 mV from a holding potential of −80 mV.” for “same peptide family as HwTx-IV (NaSpTx F ...”

[9] = system: NaV1.5; settings: cited from earlier work
[10] = system: sodium channel domain II voltage sensor; settings: gating modifier; cited from earlier work
[11] = system: NaV1.2; settings: cited from earlier work
[12] = system: NaV1.2; settings: chimeric KV1.2/NaV1.2 channels; rat NaV1.2; cited from earlier work

T3 sequence (Q14524 whole entry): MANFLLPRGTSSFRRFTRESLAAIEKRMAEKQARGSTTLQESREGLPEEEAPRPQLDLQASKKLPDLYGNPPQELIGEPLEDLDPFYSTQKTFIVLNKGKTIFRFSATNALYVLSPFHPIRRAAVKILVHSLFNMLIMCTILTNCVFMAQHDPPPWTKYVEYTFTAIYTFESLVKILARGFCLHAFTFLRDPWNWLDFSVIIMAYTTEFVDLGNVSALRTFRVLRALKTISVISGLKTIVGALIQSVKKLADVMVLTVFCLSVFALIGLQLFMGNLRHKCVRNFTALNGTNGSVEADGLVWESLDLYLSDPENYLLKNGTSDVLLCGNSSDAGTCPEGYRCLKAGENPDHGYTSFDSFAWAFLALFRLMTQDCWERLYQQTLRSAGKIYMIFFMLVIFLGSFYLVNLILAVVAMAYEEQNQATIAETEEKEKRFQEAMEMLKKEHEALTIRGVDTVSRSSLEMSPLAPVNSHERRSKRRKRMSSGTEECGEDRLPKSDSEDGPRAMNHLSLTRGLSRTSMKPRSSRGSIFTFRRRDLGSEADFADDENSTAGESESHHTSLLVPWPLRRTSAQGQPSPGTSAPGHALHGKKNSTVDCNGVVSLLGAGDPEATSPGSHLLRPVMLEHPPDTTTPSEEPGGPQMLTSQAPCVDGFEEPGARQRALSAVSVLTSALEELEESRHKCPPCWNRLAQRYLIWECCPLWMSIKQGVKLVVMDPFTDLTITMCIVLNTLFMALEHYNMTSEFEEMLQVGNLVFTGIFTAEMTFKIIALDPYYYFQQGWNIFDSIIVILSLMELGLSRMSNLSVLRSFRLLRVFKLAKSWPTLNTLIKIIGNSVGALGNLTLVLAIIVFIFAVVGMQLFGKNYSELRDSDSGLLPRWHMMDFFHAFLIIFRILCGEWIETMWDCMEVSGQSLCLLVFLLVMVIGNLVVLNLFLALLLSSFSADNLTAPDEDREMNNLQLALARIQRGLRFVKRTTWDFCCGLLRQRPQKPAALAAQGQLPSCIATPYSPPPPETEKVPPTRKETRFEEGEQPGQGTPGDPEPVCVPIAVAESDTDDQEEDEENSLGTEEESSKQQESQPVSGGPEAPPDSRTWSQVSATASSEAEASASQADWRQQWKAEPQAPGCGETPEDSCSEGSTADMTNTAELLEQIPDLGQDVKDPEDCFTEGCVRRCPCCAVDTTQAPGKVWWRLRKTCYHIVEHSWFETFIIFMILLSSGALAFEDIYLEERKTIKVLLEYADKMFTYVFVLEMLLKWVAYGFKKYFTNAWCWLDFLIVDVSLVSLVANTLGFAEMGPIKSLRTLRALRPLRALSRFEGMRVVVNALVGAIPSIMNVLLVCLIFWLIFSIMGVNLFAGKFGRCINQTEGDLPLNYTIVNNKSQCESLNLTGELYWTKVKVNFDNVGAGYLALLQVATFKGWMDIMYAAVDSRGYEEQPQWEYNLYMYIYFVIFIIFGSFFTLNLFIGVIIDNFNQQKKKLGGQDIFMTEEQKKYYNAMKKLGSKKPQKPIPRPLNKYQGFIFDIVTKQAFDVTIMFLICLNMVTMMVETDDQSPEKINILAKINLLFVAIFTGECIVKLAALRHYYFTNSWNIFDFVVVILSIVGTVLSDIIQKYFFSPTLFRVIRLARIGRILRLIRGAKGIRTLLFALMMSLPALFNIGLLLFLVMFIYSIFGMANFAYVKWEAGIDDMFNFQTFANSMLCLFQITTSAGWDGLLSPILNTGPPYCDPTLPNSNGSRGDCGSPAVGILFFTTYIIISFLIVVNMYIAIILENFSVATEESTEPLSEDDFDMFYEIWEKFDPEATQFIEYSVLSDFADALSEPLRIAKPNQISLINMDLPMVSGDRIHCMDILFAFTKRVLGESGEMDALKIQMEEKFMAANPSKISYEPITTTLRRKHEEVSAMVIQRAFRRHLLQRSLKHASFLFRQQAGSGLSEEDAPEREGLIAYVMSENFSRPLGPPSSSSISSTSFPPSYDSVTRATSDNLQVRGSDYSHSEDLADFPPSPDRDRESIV
T2 sequence (P04775 whole entry): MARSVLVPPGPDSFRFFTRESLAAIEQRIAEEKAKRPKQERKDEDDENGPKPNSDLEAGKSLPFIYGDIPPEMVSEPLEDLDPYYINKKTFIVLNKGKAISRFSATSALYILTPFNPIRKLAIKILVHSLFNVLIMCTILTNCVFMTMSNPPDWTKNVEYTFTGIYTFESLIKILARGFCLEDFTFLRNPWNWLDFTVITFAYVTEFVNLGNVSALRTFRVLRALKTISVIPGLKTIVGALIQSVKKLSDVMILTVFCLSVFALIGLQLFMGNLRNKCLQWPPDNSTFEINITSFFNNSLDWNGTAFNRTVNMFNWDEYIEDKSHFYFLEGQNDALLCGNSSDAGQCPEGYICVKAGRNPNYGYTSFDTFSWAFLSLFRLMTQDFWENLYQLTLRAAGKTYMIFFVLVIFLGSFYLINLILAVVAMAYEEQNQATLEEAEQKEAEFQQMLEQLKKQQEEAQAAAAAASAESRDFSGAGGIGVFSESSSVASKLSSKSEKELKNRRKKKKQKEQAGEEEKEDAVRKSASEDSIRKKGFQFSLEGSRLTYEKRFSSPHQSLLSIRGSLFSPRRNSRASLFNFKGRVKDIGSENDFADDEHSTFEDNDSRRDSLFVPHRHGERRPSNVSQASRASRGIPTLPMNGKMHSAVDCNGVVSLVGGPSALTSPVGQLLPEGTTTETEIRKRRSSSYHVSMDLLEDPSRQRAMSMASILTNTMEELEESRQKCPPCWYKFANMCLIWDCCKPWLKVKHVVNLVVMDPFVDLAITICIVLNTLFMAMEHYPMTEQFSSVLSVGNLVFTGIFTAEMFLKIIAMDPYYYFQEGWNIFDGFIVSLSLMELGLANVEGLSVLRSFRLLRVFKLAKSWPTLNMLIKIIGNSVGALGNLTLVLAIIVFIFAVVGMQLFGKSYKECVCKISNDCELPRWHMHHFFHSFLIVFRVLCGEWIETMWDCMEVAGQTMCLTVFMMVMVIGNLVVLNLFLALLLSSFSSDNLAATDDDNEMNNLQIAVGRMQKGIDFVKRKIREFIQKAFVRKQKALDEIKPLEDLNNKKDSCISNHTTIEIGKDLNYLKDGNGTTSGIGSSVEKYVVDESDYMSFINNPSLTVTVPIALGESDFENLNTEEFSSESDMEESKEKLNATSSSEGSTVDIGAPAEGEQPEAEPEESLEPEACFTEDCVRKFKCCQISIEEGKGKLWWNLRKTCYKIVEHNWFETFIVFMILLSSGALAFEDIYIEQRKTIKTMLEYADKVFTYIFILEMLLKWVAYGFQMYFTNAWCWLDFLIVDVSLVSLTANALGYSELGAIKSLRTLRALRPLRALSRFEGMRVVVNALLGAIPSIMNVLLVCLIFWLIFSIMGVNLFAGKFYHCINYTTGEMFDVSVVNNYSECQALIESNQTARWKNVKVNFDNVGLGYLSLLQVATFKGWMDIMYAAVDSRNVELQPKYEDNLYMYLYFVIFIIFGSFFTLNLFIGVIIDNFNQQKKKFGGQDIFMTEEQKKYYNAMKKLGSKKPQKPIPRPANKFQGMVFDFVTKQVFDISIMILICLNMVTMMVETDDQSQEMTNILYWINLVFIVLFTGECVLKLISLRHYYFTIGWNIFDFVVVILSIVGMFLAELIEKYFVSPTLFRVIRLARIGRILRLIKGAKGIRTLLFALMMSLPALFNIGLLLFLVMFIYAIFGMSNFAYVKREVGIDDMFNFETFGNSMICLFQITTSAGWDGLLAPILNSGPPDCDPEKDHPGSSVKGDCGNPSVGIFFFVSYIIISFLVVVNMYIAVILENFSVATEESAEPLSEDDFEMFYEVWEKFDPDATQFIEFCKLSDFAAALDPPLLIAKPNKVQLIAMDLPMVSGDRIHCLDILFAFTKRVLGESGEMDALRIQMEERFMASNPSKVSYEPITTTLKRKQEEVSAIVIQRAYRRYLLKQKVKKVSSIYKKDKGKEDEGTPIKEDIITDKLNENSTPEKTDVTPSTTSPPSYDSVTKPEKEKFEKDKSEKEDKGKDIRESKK

Molecule | inhibition at 1 µM [2] [%] | Effect on rNaV1.2 (in words) [2] | IC50 [3] [µM] | Selectivity, hNaV1.7 versus rNaV1.2 and hNaV1.5 (in words) [3] | Hill coefficient, inhibition of hNaV1.7 [3] | Effect on hNaV1.5 (in words) [4] | Effect on I-V relationship of hNaV1.7 (in words) [5] | further results
HwTx-IV | – | – | – | – | – | – | – | Fold higher potency at hNaV1.7, native amidated vs recombinant C-terminal carboxylate ([1]; native HwTx-IV (C-terminal amide) versus recombinant version with C-terminal carboxylate, no reference printed at the sentence (isolation: ref 24)): ~ 50 fold
CC[C@H](C)[C@H](NC(=O)[C@@H](NC(=O)[C@H](Cc1c[nH]c2ccccc12)NC(=O)[C@H](CC(=O)O)NC(=O)[C@H](Cc1c[nH]c2ccccc12)NC(=O)[C@@H](NC(=O)[C@@H]1CSSC[C@@H]2NC(=O)[C@H](CC(=O)O)NC(=O)[C@H](CO)NC(=O)[C@H](CC(=O)O)NC(=O)[C@H](CCCCN)NC(=O)[C@H](CO)NC(=O)[C@@H]3CSSC[C@H](NC(=O)[C@H](CCC(=O)O)NC(=O)[C@H](CC(C)C)NC(=O)[C@H](Cc4c[nH]cn4)NC(=O)[C@H](C)NC(=O)[C@H](CSSC[C@H](NC(=O)[C@H](C)N)C(=O)N[C@@H](CCCNC(=N)N)C(=O)N[C@@H](CCC(=O)O)C(=O)N[C@@H](CC(C)C)C(=O)N[C@@H](CC(C)C)C(=O)NCC(=O)NCC(=O)N3)NC2=O)C(=O)N[C@@H](CCCNC(=N)N)C(=O)N[C@@H](CCCCN)C(=O)N[C@@H](CCCCN)C(=O)N[C@@H](Cc2c[nH]c3ccccc23)C(=O)N2CCC[C@H]2C(=O)N[C@@H](Cc2ccc(O)cc2)C(=O)N[C@@H](Cc2c[nH]cn2)C(=O)N1)C(C)C)[C@@H](C)O)C(N)=O [Phlo1a] (H-ACRELLGGCSKDSDCCAHLECRKKWPYHCVWDWTI-NH2; disulfide 2-16, 9-21, 15-29 (inferred); N-terminus assumed) | < 20 | only minor inhibitory activity | 0.459 | inhibited rNaV1.2 and hNaV1.5 much less potently than hNaV1.7; also recorded: inhibit hNaV1.7 more potently than rNaV1.2 and hNaV1.5; also recorded: high level of selectivity for NaV1.7 over NaV1.2 and NaV1.5 | 0.87 | only minor inhibitory activity | concentration-dependent, depolarising shifts in the I-V relationship for hNaV1.7 | inhibition at 1 µM ([4]; 1 μM peptide, 50-ms step to 0 mV from −80 mV every 10 s): < 20%
ProTx-I | – | – | – | – | – | – | – | Blockade of human NaV1.5 (in words) [6]: potent blocker; Blockade of human NaV1.8 (in words) [7]: potent blocker; Effect on NaV channel activation (in words) [8]: inhibit NaV channels by shifting the threshold for channel activation to more positive potentials; Blockade of human NaV1.7 (in words) [1]: potent blocker
CC(C)C[C@@H]1NC(=O)[C@H](CC(C)C)NC(=O)[C@H](CCC(=O)O)NC(=O)[C@H](CCCNC(=N)N)NC(=O)[C@@H](NC(=O)[C@H](C)N)CSSC[C@@H]2NC(=O)[C@@H]3CSSC[C@@H](C(=O)N[C@H](C(=O)N[C@@H](Cc4c[nH]c5ccccc45)C(=O)N[C@@H](CC(=O)O)C(=O)N[C@@H](Cc4c[nH]c5ccccc45)C(=O)N[C@H](C(=O)N[C@@H](Cc4ccccc4)C(N)=O)[C@@H](C)O)C(C)C)NC(=O)[C@H](Cc4c[nH]cn4)NC(=O)[C@H](Cc4ccc(O)cc4)NC(=O)[C@@H]4CCCN4C(=O)[C@H](Cc4c[nH]c5ccccc45)NC(=O)[C@H](CCCCN)NC(=O)[C@H](CCCCN)NC(=O)[C@H](CCCNC(=N)N)NC(=O)[C@H](CSSC[C@H](NC(=O)CNC(=O)CNC1=O)C(=O)N[C@@H](CO)C(=O)N[C@@H](CCCCN)C(=O)N[C@@H](CC(=O)O)C(=O)N[C@@H](CO)C(=O)N[C@@H](CC(=O)O)C(=O)N3)NC(=O)[C@H](CCC(=O)O)NC(=O)[C@H](CC(C)C)NC(=O)[C@H](Cc1c[nH]cn1)NC(=O)[C@H](C)NC2=O [Phlo1b] (H-ACRELLGGCSKDSDCCAHLECRKKWPYHCVWDWTF-NH2; disulfide 2-16, 9-21, 15-29 (inferred); N-terminus assumed) | 37 | only minor inhibitory activity; also recorded: slightly more potent at rNaV1.2 | 0.36 | inhibit hNaV1.7 more potently than rNaV1.2 and hNaV1.5 | 1.04 | only minor inhibitory activity; also recorded: a similar effect as Phlo1a at hNaV1.5 | concentration-dependent, depolarising shifts in the I-V relationship for hNaV1.7 | –
ProTx-II: most potent blocker of hNaV1.7 within NaSpTx family 3 | – | – | – | – | – | – | – | IC50 [9]: 0.079 µM; Binding to NaV1.5 receptor site 4 (in words) ([9]; mutagenesis study of NaV1.5): does not bind to receptor site 4 on the domain II voltage sensor; Effect on NaV1.5 gating (in words) ([9]; voltage-dependence of activation): shifts the voltage-dependence of activation of NaV1.5 to more positive potentials; Activity (channel type), NaSpTx3 alignment ([8]; Figure 8C annotation, no reference given): Nav; Mechanism of sodium conductance reduction (in words) [10]: reduces sodium conductance by trapping the domain II voltage sensor in the closed state; IC50 [11]: 0.041 µM; Voltage sensors bound (in words) [12]: binds to the voltage sensors in domains I, II and IV of rat NaV1.2; also recorded: binding to the voltage sensors in domains I, II (receptor site 4), and IV (receptor site 3) of NaV1.2
